Measured values as given in patent US20090298857A1, “Treatment of Neurodegenerative Diseases Through Inhibition of HSP90” (SLOAN-KETTERING INSTITUTE FOR CANCER RESEARCH, priority 2006, published 2009).
Where “and” joins values, the source holds several entries; their conditions need not be identical. Equal entries are not always repeated.

Key:
P-glycoprotein = P-glycoprotein (Homo sapiens, UniProt P08183); experiment: P-glycoprotein substrate status; format: in vitro ADME
Text: Another characteristic which is indicative of the ability to cross the blood brain barrier is protein binding. […] It is not sufficient for a potential neurotherapeutic agent to move across the BBB—it also has to stay in the brain long enough to exert its desired action. This means that it also has to avoid being a substrate for a variety of transport proteins that work to extrude compounds from the brain.

[1] = Assessment of PU-DZ8 brain levels by HPLC/MS/MS; format: in vivo, mice; details: 75 mg/kg i.p.
Procedure: Assessment of PU-DZ8 brain levels. Concentrations of compound were determined and quantitated by a MRM mode using a tandem high-performance liquid chromatography-mass/mass spectrometry (HPLC/MS/MS). A weighed piece of brain was rinsed with saline isotonic solution, dried with gauze and then homogenized in mobile phase (acetonitrile (ACN)/0.1% formic acid=1.2/2.8, v/v). Haloperidol was added as internal standard. PU-DZ8 was extracted in methylene chloride, the organic layer was separated, speedily dried under vacuum and reconstituted in the mobile phase. Compound analysis was performed in the API 4000™ LC/MS/MS (Applied Biosystems) which was coupled with a Shimadzu LC system and a 96-well plate autosampler. A Gemini C18 column (5 μ particle size, 50×4.6 mm I.D.) was used for the LC separation. The analyte was eluted under an isocratic condition for 4 min at a flow rate of 0.4 mL/min.
One dose of PU-DZ8 (75 mg/kg) was administered intraperitoneally (i.p.) to female mice of 2.5-4 months in age (n=32) and animals were sacrificed in the interval of 0 to 36 h. Both aggregate-free Tau (S1) and insoluble Tau (P3) fractions were prepared from the subcortical and cortical regions of these mice. PU-DZ8 levels in the brain reached 0.35 μg/g (˜700 nM) at 4 h, and the pharmacologically relevant dose was retained for at least 12 h post-administration (0.2 μg/g, ˜390 nM).

[2] = tested on: p35 and Tau phosphorylation in cortical region; experiment: One dose PU-DZ8 in hTau mice; format: in vivo; details: 75 mg/kg i.p.
Procedure: The majority of Tau pathology in hTau mice is located in the cortical brain region. These mice express six isoforms of non-mutant human Tau, but develop AD-like Tau-pathology. Heat-stable fractions (S1) prepared from cortical homogenates of these mice indicate an age-related accumulation of Tau phosphorylated at putative cdk5 sites. […] Aggregate-free Tau (S1) fractions were prepared from the cortical region of these mice and human Tau levels assessed by immunobloting with an antibody specific for 3-repeat domain Tau (RD3). By analogy to experiments on primary neuronal cultures and WT Tau transfected cells, the Hsp90 inhibitor had no effect on soluble WT Tau expression. […] The monoclonal antibody CP13 is commonly used to detect Tau pathology in both early and more advanced stages of Tau aggregate accumulation (41).

[3] = tested on: mutant tau (HT7), Hsp70, p35; experiment: One dose PU-DZ8 in 6 month JNPL3 mice, S1 fraction Western blot (FIG. 9); format: in vivo; details: one dose 75 mg/kg IP, subcortical S1
Procedure: JNPL3 female mice 6 months of age were treated IP with the Hsp90 inhibitor PU-DZ8 (75 mg/kg) and sacrificed various times as indicated in FIG. 9. Brains were divided in subcortical and cortical regions and processed using the Greenberg and Davies extraction protocol (77). Sarkosyl soluble fractions (S1) extracted from the subcortical region were analyzed by WB for p35, cdk5, mutant tau (HT7), Hsp90 and Hsp70. Protein bands were normalized to actin and plotted as relative change from untreated mice.

[4] = ref. (2); cited from earlier work

Chain of P-glycoprotein (P08183 whole entry): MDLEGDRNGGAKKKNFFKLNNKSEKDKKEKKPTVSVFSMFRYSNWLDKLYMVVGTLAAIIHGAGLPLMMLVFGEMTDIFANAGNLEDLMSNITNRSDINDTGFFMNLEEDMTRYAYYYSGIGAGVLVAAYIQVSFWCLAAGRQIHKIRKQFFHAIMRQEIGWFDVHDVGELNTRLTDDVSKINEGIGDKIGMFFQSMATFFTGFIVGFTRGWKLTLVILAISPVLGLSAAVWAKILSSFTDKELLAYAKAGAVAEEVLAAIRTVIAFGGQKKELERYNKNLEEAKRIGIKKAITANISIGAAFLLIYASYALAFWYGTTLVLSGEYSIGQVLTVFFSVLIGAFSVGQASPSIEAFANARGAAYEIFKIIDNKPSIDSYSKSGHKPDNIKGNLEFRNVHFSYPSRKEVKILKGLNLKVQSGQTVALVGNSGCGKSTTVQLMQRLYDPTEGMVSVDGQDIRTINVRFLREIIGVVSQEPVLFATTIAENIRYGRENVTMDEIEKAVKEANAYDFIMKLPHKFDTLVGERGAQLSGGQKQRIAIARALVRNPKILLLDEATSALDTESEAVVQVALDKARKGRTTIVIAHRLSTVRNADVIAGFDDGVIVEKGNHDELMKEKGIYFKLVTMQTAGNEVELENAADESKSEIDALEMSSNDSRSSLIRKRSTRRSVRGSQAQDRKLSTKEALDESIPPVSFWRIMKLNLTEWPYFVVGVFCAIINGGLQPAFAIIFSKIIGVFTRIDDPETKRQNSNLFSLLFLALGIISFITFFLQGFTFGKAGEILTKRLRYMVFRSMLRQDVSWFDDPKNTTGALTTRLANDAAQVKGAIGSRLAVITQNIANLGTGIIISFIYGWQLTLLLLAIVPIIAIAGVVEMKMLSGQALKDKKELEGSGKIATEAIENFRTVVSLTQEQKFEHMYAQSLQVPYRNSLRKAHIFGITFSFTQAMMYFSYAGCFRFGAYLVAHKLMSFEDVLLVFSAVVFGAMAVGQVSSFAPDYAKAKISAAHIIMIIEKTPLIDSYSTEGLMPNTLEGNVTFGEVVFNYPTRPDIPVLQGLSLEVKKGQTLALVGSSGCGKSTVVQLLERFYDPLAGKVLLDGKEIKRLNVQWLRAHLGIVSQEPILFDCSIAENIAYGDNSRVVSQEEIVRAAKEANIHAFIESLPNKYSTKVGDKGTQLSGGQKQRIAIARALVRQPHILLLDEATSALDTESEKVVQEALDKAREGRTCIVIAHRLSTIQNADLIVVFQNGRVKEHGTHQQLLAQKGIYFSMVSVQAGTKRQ

Compound: CC(C)NCCCn1c(Cc2cc3c(cc2I)OCO3)nc2c(N)nc(F)nc21 [PU-DZ8]
- P-gp substrate (P-glycoprotein): not a substrate of P-pg
- level in the brain ([1]; 4 h): 0.35 μg/g and ~700 nM
- level in the brain ([1]; 12 h post-administration): 0.2 μg/g and ~390 nM
- p35 levels ([2]; 8 h post-administration, P=0.0019): significant time-dependent reduction
- Tau phosphorylation on Ser202 (antibody CP13) ([2]; 8 h post-administration, P=0.0078): alleviation of Tau phosphorylation
- soluble WT Tau expression ([2]; hTau mice, cortical S1): no effect
- chaperone levels (hsp70) [3]: hsp70 increase
- mutant protein mtau (HT7) [3]: degradation
- water solubility [4]: water soluble
